In patent US12492181B2, “Gem-disubstituted piperidine melanocortin subtype-2 receptor (MC2R) antagonists and uses thereof” (Crinetics Pharmaceuticals, Inc., priority 2019, dated 2025):

Molecular target: T1, hMC2 receptor (crude hMC2R membranes from CRE-bla-CHO-K1 cells stably expressing hMC2 receptor and hMRAP accessory protein) (Homo sapiens, UniProt Q01718)
T1 construct: crude membrane fractions
Assay: hMC2 membrane binding assay ([125I]ACTH (1-39) Tyr23, SPA)
Conditions: displacement of 0.2 nM [125I]ACTH (1-39) Tyr23 from hMC2R membranes, 1.5 hours at room temperature; read-out: MC2R binding potency
In short: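 Crude membranes from CRE-bla-CHO-K1 cells stably co-expressing hMC2R and hMRAP, premixed with WGA PVT SPA beads in pH 7.4 HEPES buffer (5 mM MgCl2, 1 mM CaCl2, 0.20% BSA, protease inhibitors). Compounds compete with [125I]ACTH(1-39) Tyr23, read by scintillation. Ki from non-linear regression.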

T1 sequence (Q01718 whole entry): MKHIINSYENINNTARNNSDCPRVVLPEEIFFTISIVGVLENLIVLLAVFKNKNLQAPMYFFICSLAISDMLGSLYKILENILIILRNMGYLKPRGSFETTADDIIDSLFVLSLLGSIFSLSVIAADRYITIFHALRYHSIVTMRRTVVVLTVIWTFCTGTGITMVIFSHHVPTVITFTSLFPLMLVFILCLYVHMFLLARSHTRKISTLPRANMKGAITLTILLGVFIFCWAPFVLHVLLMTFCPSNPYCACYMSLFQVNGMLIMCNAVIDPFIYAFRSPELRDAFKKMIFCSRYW
T1 sequence (Q8TCY5 whole entry partner): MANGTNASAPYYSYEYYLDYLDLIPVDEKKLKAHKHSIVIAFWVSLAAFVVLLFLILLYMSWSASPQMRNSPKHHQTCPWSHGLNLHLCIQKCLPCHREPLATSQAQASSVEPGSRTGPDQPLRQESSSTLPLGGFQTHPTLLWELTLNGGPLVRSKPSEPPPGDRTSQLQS

| Ki [nM] | Structure (SMILES) |
| --- | --- |
| < 10 | CCc1ccccc1-c1ccc(C2(C(=O)N[C@@H]3CCN(C)C3)CCN(c3ccc(C(F)(F)F)cc3C#N)CC2)cn1 [Compound 1-60, 1-[2-cyano-4-(trifluoromethyl)phenyl]-4-[6-(2-ethylphenyl)pyridin-3-yl]-N-[(3R)-1-methylpyrrolidin-3-yl]piperidine-4-carboxamide] |
| < 10 | CN1CC[C@H](NC(=O)C2(c3ccc(-c4cccnc4C4CC4)nc3)CCN(c3ccc(C(F)(F)F)cc3C#N)CC2)C1 [Compound 1-180, 1-[2-cyano-4-(trifluoromethyl)phenyl]-4-{2′-cyclopropyl-[2,3′-bipyridin]-5-yl}-N-[(3S)-1-methylpyrrolidin-3-yl]piperidine-4-carboxamide] |
| < 10 | CCOc1ccccc1-c1ccc(C2(NC(=O)CN(C)C)CCN(c3ccc(C(F)(F)F)cc3C#N)CC2)cn1 [Compound 2-34, N-{1-[2-cyano-4-(trifluoromethyl)phenyl]-4-[6-(2-ethoxyphenyl)pyridin-3-yl]piperidin-4-yl}-2-(dimethylamino)acetamide] |
| < 10 | CCOc1ncccc1-c1ccc(C2(C(=O)NC[C@H](N)CO)CCN(c3ccc(C(F)(F)F)cc3C#N)CC2)cn1 [Compound 1-28, N-[(2S)-2-amino-3-hydroxypropyl]-1-[2-cyano-4-(trifluoromethyl)phenyl]-4-{2′-ethoxy-[2,3′-bipyridin]-5-yl}piperidine-4-carboxamide] |
| < 10 | COc1ncc(F)cc1-c1ccc(C2(C(=O)N[C@@H]3CCN(C)C3)CCN(c3ccc(C(F)(F)F)cc3C#N)CC2)cn1 [Compound 1-86, 1-[2-cyano-4-(trifluoromethyl)phenyl]-4-{5′-fluoro-2′-methoxy-[2,3′-bipyridin]-5-yl}-N-[(3R)-1-methylpyrrolidin-3-yl]piperidine-4-carboxamide] |
| < 10 | COc1ncccc1-c1ccc(C2(C(=O)N[C@@H](C)CN(C)C)CCN(c3ccc(C(F)(F)F)cc3F)CC2)cn1 [Compound 1-295, N-[(2S)-1-(dimethylamino)propan-2-yl]-1-[2-fluoro-4-(trifluoromethyl)phenyl]-4-{2′-methoxy-[2,3′-bipyridin]-5-yl}piperidine-4-carboxamide] |
| < 10 | CN1C[C@@H](O)[C@H](NC(=O)C2(c3ccc(-c4cccn4C)nc3)CCN(c3ccc(C(F)(F)F)cc3C#N)CC2)C1 [Compound 1-269, 1-[2-cyano-4-(trifluoromethyl)phenyl]-N-[(3R,4R)-4-hydroxy-1-methylpyrrolidin-3-yl]-4-[6-(1-methyl-1H-pyrrol-2-yl)pyridin-3-yl]piperidine-4-carboxamide] |
| < 10 | CN(C)CCNC(=O)C1(c2cnc(-c3cccn3C)c(F)c2)CCN(c2ccc(C(F)(F)F)cc2Cl)CC1 [Compound 1-309, 1-[2-chloro-4-(trifluoromethyl)phenyl]-N-[2-(dimethylamino)ethyl]-4-[5-fluoro-6-(1-methyl-1H-pyrrol-2-yl)pyridin-3-yl]piperidine-4-carboxamide] |
| 10 to 100 | CCOc1ncccc1-c1ccc(C2(C(=O)NCCN(C)C)CCN(c3ccc(C(F)(F)F)cc3C#N)CC2)cn1 [Compound 1-15, 1-[2-cyano-4-(trifluoromethyl)phenyl]-N-[2-(dimethylamino)ethyl]-4-{2′-ethoxy-[2,3′-bipyridin]-5-yl}piperidine-4-carboxamide] |
| < 10 | CN(C)CCNC(=O)C1(c2ccc(-c3cccn3C)nc2)CCN(c2ccc(C(F)(F)F)cc2C#N)CC1 [Compound 1-216, 1-[2-cyano-4-(trifluoromethyl)phenyl]-N-[2-(dimethylamino)ethyl]-4-[6-(1-methyl-1H-pyrrol-2-yl)pyridin-3-yl]piperidine-4-carboxamide] |
| < 10 | CNCCNC(=O)C1(c2cnc(-c3cccnc3OC)c(F)c2)CCN(c2ccc(C(F)(F)F)cc2F)CC1 [Compound 1-301, 4-{3-fluoro-2′-methoxy-[2,3′-bipyridin]-5-yl}-1-[2-fluoro-4-(trifluoromethyl)phenyl]-N-[2-(methylamino)ethyl]piperidine-4-carboxamide] |
| < 10 | CCOc1ncccc1-c1ccc(C2(C(=O)N[C@@H]3CCNC3)CCN(c3ccc(C(F)(F)F)cc3C#N)CC2)cc1 [Compound 1-2, 1-[2-cyano-4-(trifluoromethyl)phenyl]-4-[4-(2-ethoxypyridin-3-yl)phenyl]-N-[(3R)-pyrrolidin-3-yl]piperidine-4-carboxamide] |
| < 10 | CCOc1ncccc1-c1ccc(C2(C(=O)NCCNC)CCN(c3ccc(C(F)(F)F)cc3F)CC2)cn1 [Compound 1-223, 4-{2′-ethoxy-[2,3′-bipyridin]-5-yl}-1-[2-fluoro-4-(trifluoromethyl)phenyl]-N-[2-(methylamino)ethyl]piperidine-4-carboxamide] |

The next lines start with the compound.

| Structure (SMILES) | Ki [nM] |
| --- | --- |
| COc1ccccc1-c1ccc(C2(C(=O)NC[C@@H]3CCN3)CCN(c3ccc(C(F)(F)F)cc3C#N)CC2)cn1 [Compound 1-213, N-{[(2S)-azetidin-2-yl]methyl}-1-[2-cyano-4-(trifluoromethyl)phenyl]-4-[6-(2-methoxyphenyl)pyridin-3-yl]piperidine-4-carboxamide] | < 10 |
| CCOc1ncccc1-c1ccc(C2(NC(=O)[C@H]3CCNC3)CCN(c3ccc(C(F)(F)F)cc3C#N)CC2)cn1 [Compound 2-8, (3S)—N-{1-[2-cyano-4-(trifluoromethyl)phenyl]-4-{2′-ethoxy-[2,3′-bipyridin]-5-yl}piperidin-4-yl}pyrrolidine-3-carboxamide] | < 10 |
| CN1CC[C@@H](NC(=O)C2(c3ccc(-c4ccn(C)c4)nc3)CCN(c3ccc(C(F)(F)F)cc3C#N)CC2)C1 [Compound 1-115, 1-[2-cyano-4-(trifluoromethyl)phenyl]-4-[6-(1-methyl-1H-pyrrol-3-yl)pyridin-3-yl]-N-[(3R)-1-methylpyrrolidin-3-yl]piperidine-4-carboxamide] | 10 to 100 |
| Cn1cccc1-c1ccc(C2(C(=O)N[C@H]3CN4CCC3CC4)CCN(c3ccc(C(F)(F)F)cc3C#N)CC2)cn1 [Compound 1-188, N-[(3R)-1-azabicyclo[2.2.2]octan-3-yl]-1-[2-cyano-4-(trifluoromethyl)phenyl]-4-[6-(1-methyl-1H-pyrrol-2-yl)pyridin-3-yl]piperidine-4-carboxamide] | 10 to 100 |
| Cc1sccc1-c1ccc(C2(C(=O)N[C@H]3CCN(C)C3)CCN(c3ccc(C(F)(F)F)cc3C#N)CC2)cn1 [Compound 1-122, 1-[2-cyano-4-(trifluoromethyl)phenyl]-N-[(3S)-1-methylpyrrolidin-3-yl]-4-[6-(2-methylthiophen-3-yl)pyridin-3-yl]piperidine-4-carboxamide] | < 10 |
| CCOc1ncccc1-c1ncc(C2(C(=O)N[C@H]3CCN(C)C3)CCN(c3ccc(C(F)(F)F)cc3C#N)CC2)cc1F [Compound 1-109, 1-[2-cyano-4-(trifluoromethyl)phenyl]-4-{2′-ethoxy-3-fluoro-[2,3′-bipyridin]-5-yl}-N-[(3S)-1-methylpyrrolidin-3-yl]piperidine-4-carboxamide] | < 10 |
| CCOc1ncccc1-c1ncc(C2(C(=O)N[C@@H](C)CN(C)C)CCN(c3ccc(Cl)cc3C#N)CC2)cc1F [Compound 1-325, 1-(4-chloro-2-cyanophenyl)-N-[(2S)-1-(dimethylamino)propan-2-yl]-4-{2′-ethoxy-3-fluoro-[2,3′-bipyridin]-5-yl}piperidine-4-carboxamide] | < 10 |
| COc1ccccc1-c1ccc(C2(C(=O)NC[C@@H]3C[C@@H](F)CN3C)CCN(c3ccc(C(F)(F)F)cc3C#N)CC2)cn1 [Compound 1-250, 1-[2-cyano-4-(trifluoromethyl)phenyl]-N-{[(2S,4R)-4-fluoro-1-methylpyrrolidin-2-yl]methyl}-4-[6-(2-methoxyphenyl)pyridin-3-yl]piperidine-4-carboxamide] | < 10 |
| COc1ccccc1-c1ccc(C2(C(=O)N[C@@H]3CCN(C)C3)CCN(c3ccc(C(F)(F)F)cc3C#N)CC2)cn1 [Compound 1-52, 1-[2-cyano-4-(trifluoromethyl)phenyl]-4-[6-(2-methoxyphenyl)pyridin-3-yl]-N-[(3R)-1-methylpyrrolidin-3-yl]piperidine-4-carboxamide] | < 10 |
| COc1ccccc1-c1ncc(C2(C(=O)NCCCN(C)C)CCN(c3ccc(C(F)(F)F)cc3C#N)CC2)cc1F [Compound 1-199, 1-[2-cyano-4-(trifluoromethyl)phenyl]-N-[3-(dimethylamino)propyl]-4-[5-fluoro-6-(2-methoxyphenyl)pyridin-3-yl]piperidine-4-carboxamide] | < 10 |
| CCOc1ncccc1-c1ncc(C2(C(=O)NCCN(C)C)CCN(c3ccc(C(F)(F)F)cc3F)CC2)cc1F [Compound 1-284, N-[2-(dimethylamino)ethyl]-4-{2′-ethoxy-3-fluoro-[2,3′-bipyridin]-5-yl}-1-[2-fluoro-4-(trifluoromethyl)phenyl]piperidine-4-carboxamide] | < 10 |
| CNCCNC(=O)C1(c2ccc(-c3cccnc3OC)nc2)CCN(c2ccc(C(F)(F)F)cc2F)CC1 [Compound 1-272, 1-[2-fluoro-4-(trifluoromethyl)phenyl]-4-{2′-methoxy-[2,3′-bipyridin]-5-yl}-N-[2-(methylamino)ethyl]piperidine-4-carboxamide] | < 10 |
| CN1CC[C@@H](NC(=O)C2(c3ccc(-c4cccc(F)c4)nc3)CCN(c3ccc(C(F)(F)F)cc3C#N)CC2)C1 [Compound 1-64, 1-[2-cyano-4-(trifluoromethyl)phenyl]-4-[6-(3-fluorophenyl)pyridin-3-yl]-N-[(3R)-1-methylpyrrolidin-3-yl]piperidine-4-carboxamide] | < 10 |
| CN1CC[C@@H](NC(=O)C2(c3ccc(-c4cc(F)ccc4F)nc3)CCN(c3ccc(C(F)(F)F)cc3C#N)CC2)C1 [Compound 1-68, 1-[2-cyano-4-(trifluoromethyl)phenyl]-4-[6-(2,5-difluorophenyl)pyridin-3-yl]-N-[(3R)-1-methylpyrrolidin-3-yl]piperidine-4-carboxamide] | < 10 |
